Source: ChEMBL document CHEMBL2157938, “Use of structure based design to increase selectivity of pyridyl-cinnoline phosphodiesterase 10A (PDE10A) inhibitors against phosphodiesterase 3 (PDE3)” (Bioorg Med Chem Lett, 2012)

How the values were obtained:
[1] = Inhibition of mouse PDE10A7 using fluorescein labeled CAMP as substrate incubated for 30 mins prior to substrate addition measured after 30 mins by fluorescence polarization assay
[2] = Inhibition of PDE3
[3] = Oral bioavailability in rat at 5 mg/kg; format: ADME, organism-based; settings: in vivo
[4] = Half life in rat at 1 mg/kg, iv and 5 mg/kg, po; format: ADME, organism-based; settings: in vivo
[5] = Selectivity ratio of IC50 for PDE3 to IC50 for mouse PDE10A7
[6] = Clearance in rat liver microsomes; format: ADME, Microsome; settings: read-out: CLH
[7] = Clearance in rat at 1 mg/kg, iv and 5 mg/kg, po; format: ADME, organism-based; settings: in vivo

| SMILES | IC50 [1] [nM] | IC50 [2] [nM] | bioavailability [3] [%] | half-life [4] [h] | Ratio IC50 [5] | microsomal CLint [6] [µL/min/mg] | clearance [7] [mL/min/kg] |
| --- | --- | --- | --- | --- | --- | --- | --- |
| COc1cc2nncc(-c3ccc(NC(C)C)nc3)c2cc1OC | 7.6 | – | – | – | – | – | – |
| COc1cc2nncc(-c3cnc(N4CCC(C(C)(C)O)CC4)c(C)c3)c2cc1N(C)C | 4500 | > 10000 | – | – | – | – | – |
| COc1cc2nncc(-c3cnc(N4CCC(C(C)(C)O)CC4)c(C(F)F)c3)c2cc1OC | 1.2 | 6630 | 46 | 2.08 | 5520 | – | – |
| CCn1cc(-c2cnc(N3CCC(C(C)(C)O)CC3)c(C)c2)c2cc(OC)c(OC)cc2c1=O | 13.8 | – | – | – | – | 50 | – |
| COc1cc2c(-c3cnc(N4CCC(C(C)(C)O)CC4)c(C)c3)cnnc2cc1OC(F)F | 68.6 | 15900 | – | – | 231 | – | – |
| COc1cc2nncc(-c3cnc(N4CCC(C(C)(C)O)CC4)c(C)c3)c2cc1OC | – | 1700 | 60 | 1.54 | 347 | – | – |
| COc1cc2ccnc(-c3ccc(NC(C)C)nc3)c2cc1OC | 47 | – | – | – | – | – | – |
| COc1cc2nccc(-c3cnc(N4CCC(C(C)(C)O)CC4)c(C)c3)c2cc1OC | 11.9 | – | – | – | – | 57 | – |

The remaining compounds from weak to strong by IC50 [1], led by results:

| IC50 [1] [nM] | IC50 [2] [nM] | bioavailability [3] [%] | half-life [4] [h] | Ratio IC50 [5] | microsomal CLint [6] [µL/min/mg] | clearance [7] [mL/min/kg] | SMILES |
| --- | --- | --- | --- | --- | --- | --- | --- |
| 1090 | – | – | – | – | – | – | COc1cc2snc(-c3ccc(NC(C)C)nc3)c2cc1OC |
| 132 | > 10000 | – | – | > 75 | – | – | COc1cc2c(-c3cnc(N4CCC(C(C)(C)O)CC4)c(C)c3)cnnc2cc1F |
| 40.9 | > 10000 | – | – | > 244 | – | – | CCOc1cc2c(-c3cnc(N4CCC(C(C)(C)O)CC4)c(C)c3)cnnc2cc1C |
| 25.6 | 25100 | – | – | 980 | – | – | COc1cc2nncc(-c3cnc(N4CCC(C(C)(C)O)CC4)c(C)c3)c2cc1C |
| 19.1 | > 10000 | – | – | > 523 | – | – | COc1cc2c(-c3cnc(N4CCC(C(C)(C)O)CC4)c(C)c3)cnnc2cc1OCC1CC1 |
| 13.4 | – | – | – | – | 69 | – | COc1cc2cncc(-c3cnc(N4CCC(C(C)(C)O)CC4)c(C)c3)c2cc1OC |
| 6.3 | 2250 | – | – | 357 | – | – | COc1cc2nncc(-c3cnc(N4CCC(C(C)(C)O)CC4)c(Cl)c3)c2cc1OC |
| 4.1 | 17900 | 32 | 1.48 | 4360 | – | 15.5 | COc1cc2nncc(-c3cnc(N4CCC(C(C)(C)O)CC4)c(C)c3)c2cc1OC1CC1 |
| 1.3 | 2980 | – | – | 2290 | – | – | COc1cc2nncc(-c3cnc(N4CCC(C(C)(C)O)CC4)c(C4CC4)c3)c2cc1OC |
